Columns and labels:
[1] = target: T1, His tagged PTPN2 (TC45) protein (Homo sapiens, UniProt P17706); assay: Mobility shift assay (MSA) to determine potency of PTPN2 inhibitors; format: biochemical; details: 0.5 nM enzyme, 2 μM substrate
T1 construct: made in house
T1 sequence (P17706 with tags, fused parts or gaps isoform P17706-2): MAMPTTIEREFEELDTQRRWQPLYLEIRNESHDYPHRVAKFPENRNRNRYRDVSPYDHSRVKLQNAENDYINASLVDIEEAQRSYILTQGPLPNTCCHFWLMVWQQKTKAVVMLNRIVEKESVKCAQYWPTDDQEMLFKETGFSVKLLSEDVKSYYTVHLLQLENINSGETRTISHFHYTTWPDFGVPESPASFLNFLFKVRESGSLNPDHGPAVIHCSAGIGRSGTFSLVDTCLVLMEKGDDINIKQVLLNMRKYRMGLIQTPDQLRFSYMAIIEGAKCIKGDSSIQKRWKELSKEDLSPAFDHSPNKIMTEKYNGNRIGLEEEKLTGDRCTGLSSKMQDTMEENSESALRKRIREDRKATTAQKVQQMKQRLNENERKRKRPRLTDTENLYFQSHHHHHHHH
Summary of the method: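 His-tagged human PTPN2 (TC45), 0.5 nM, preincubated 10 min at room temperature with compound (12-point, 1:3 dilutions) in HEPES pH 7.5 buffer with EGTA, EDTA, Tween 20 and DTT. Then 2 μM OG488-labelled phospho-insulin-receptor peptide was added for 10 min and quenched. % conversion was read by mobility shift, and IC50 came from % inhibition.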

[2] = target: T2, His tagged full-length PTPN1 protein (Homo sapiens, UniProt P18031); assay: Mobility shift assay (MSA) to determine potency of PTPN1 inhibitors; format: biochemical; details: 0.5 nM enzyme, 2 μM substrate
T2 construct: made in house
T2 sequence (P18031 with tags, fused parts or gaps): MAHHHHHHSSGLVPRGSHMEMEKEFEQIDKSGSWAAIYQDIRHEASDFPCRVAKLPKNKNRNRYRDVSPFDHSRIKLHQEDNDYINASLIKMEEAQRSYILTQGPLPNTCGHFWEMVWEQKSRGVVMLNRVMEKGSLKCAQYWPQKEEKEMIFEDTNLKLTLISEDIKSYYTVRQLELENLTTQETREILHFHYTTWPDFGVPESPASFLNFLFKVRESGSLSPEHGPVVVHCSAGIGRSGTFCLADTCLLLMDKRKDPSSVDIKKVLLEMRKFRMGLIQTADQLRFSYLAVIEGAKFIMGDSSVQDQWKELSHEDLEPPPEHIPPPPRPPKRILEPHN
Summary of the method: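 Readout is microfluidic mobility shift (ex 488/em 530 nm) of a 2 μM OG488-labelled pTyr insulin-receptor peptide after a 10 min room-temperature reaction, following 10 min enzyme–compound preincubation. Enzyme: 0.5 nM full-length His-tagged PTPN1 in HEPES pH 7.5 buffer. IC50 fitted from % inhibition at 12 concentrations (1:3 steps).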

| IC50 [2] | SMILES | IC50 [1] |
| --- | --- | --- |
| 1 to 10 nM | CC1=C(CCN2CCc3cc(O)c(N4CC(=O)NS4(=O)=O)c(F)c3C2)C(C)(C)CCC1 [Compound 297] | < 1 nM |
| 10 to 100 nM | CCCCCN1CCc2cc(O)c(N3CC(=O)NS3(=O)=O)c(F)c2C1 [Compound 298] | 10 to 100 nM |
| 1 to 10 nM | CC(C)(C)OC(=O)N[C@H]1CC[C@H](CCN2CCc3cc(O)c(N4CC(=O)NS4(=O)=O)c(F)c3C2)CC1 [Compound 300] | 1 to 10 nM |
| 10 to 100 nM | O=C1CN(c2c(O)cc3c(c2F)CN(CCCc2ccccc2F)CC3)S(=O)(=O)N1 [Compound 303] | 1 to 10 nM |
| > 100 nM | Cc1noc(C)c1CCN1Cc2c(cc(O)c(N3CC(=O)NS3(=O)=O)c2F)C(F)(F)C1 [Compound 306] | > 100 nM |
| 10 to 100 nM | CC(=O)NC1CCc2cc(O)c(N3CC(=O)NS3(=O)=O)c(F)c2C1 (centres unmarked) [Compound 322] | 10 to 100 nM |
| 10 to 100 nM | CC(C)CNC(=N)N1CCc2cc(O)c(N3CC(=O)NS3(=O)=O)c(F)c2C1 [Compound 329, 8-fluoro-6-hydroxy-N-(2-methylpropyl)-7-(1,1,4-trioxo-1λ^6,2,5-thiadiazolidin-2-yl)-3,4-dihydroisoquinoline-2(1H)-carboximidamide] | 10 to 100 nM |
| > 100 nM | O=C1CN(c2c(O)cc3c(c2F)CC(NCCC2COC2)CC3)S(=O)(=O)N1 (centres unmarked) [Compound 330, 5-(1-fluoro-3-hydroxy-7-{[2-(oxetan-3-yl)ethyl]amino}-5,6,7,8-tetrahydronaphthalen-2-yl)-1λ^6,2,5-thiadiazolidine-1,1,3-trione] | > 100 nM |
| 1 to 10 nM | CC(C)CCN[C@@H]1CCc2c(F)c(O)c(N3CC(=O)NS3(=O)=O)c(F)c2C1 [Compound 331, 5-{(7R)-1,4-difluoro-3-hydroxy-7-[(3-methylbutyl)amino]-5,6,7,8-tetrahydronaphthalen-2-yl}-1λ^6,2,5-thiadiazolidine-1,1,3-trione] | 1 to 10 nM |
| 10 to 100 nM | CC(C)CCS(=O)(=O)NC1CCc2cc(O)c(N3CC(=O)NS3(=O)=O)c(F)c2C1 (centres unmarked) [Compound 332, N-[8-fluoro-6-hydroxy-7-(1,1,4-trioxo-1λ^6,2,5-thiadiazolidin-2-yl)-1,2,3,4-tetrahydronaphthalen-2-yl]-3-methylbutane-1-sulfonamide] | 10 to 100 nM |
| 10 to 100 nM | O=C1CN(c2c(O)cc3c(c2F)CC(O)CC3)S(=O)(=O)N1 (centres unmarked) [Compound 335, 5-(1-fluoro-3,7-dihydroxy-5,6,7,8-tetrahydronaphthalen-2-yl)-1λ^6,2,5-thiadiazolidine-1,1,3-trione] | 10 to 100 nM |
| 1 to 10 nM | [2H]C([2H])([2H])C([2H])([2H])C([2H])([2H])C([2H])([2H])NC1CCc2cc(O)c(N3CC(=O)NS3(=O)=O)c(F)c2C1 (centres unmarked) [Compound 336, 5-{7-[(^2H9)butylamino]-1-fluoro-3-hydroxy-5,6,7,8-tetrahydronaphthalen-2-yl}-1λ^6,2,5-thiadiazolidine-1,1,3-trione] | 1 to 10 nM |
| 10 to 100 nM | NCC1(O)CCc2cc(O)c(N3CC(=O)NS3(=O)=O)c(F)c2C1 (centres unmarked) [Compound 337, 5-[7-(aminomethyl)-1-fluoro-3,7-dihydroxy-5,6,7,8-tetrahydronaphthalen-2-yl]-1λ^6,2,5-thiadiazolidine-1,1,3-trione] | 10 to 100 nM |
| 1 to 10 nM | O=C1CN(c2c(O)cc3c(c2F)C[C@H](NCCC2(CO)CCC2)CC3)S(=O)(=O)N1 [Compound 338, 5-[(7R)-1-fluoro-3-hydroxy-7-({2-[1-(hydroxymethyl)cyclobutyl]ethyl}amino)-5,6,7,8-tetrahydronaphthalen-2-yl]-1λ^6,2,5-thiadiazolidine-1,1,3-trione] | < 1 nM |
| 10 to 100 nM | CC(C)(C)OC(=O)N[C@@H]1CCc2cc(O)c(N3CC(=O)NS3(=O)=O)c(F)c2C1 [Compound 341, tert-butyl [(2R)-8-fluoro-6-hydroxy-7-(1,1,4-trioxo-1λ^6,2,5-thiadiazolidin-2-yl)-1,2,3,4-tetrahydronaphthalen-2-yl]carbamate] | 10 to 100 nM |
| 10 to 100 nM | CC1(CN[C@@H]2CCc3cc(O)c(N4CC(=O)NS4(=O)=O)c(F)c3C2)COC1 [Compound 344, 5-[(7R)-1-fluoro-3-hydroxy-7-{[(3-methyloxetan-3-yl)methyl]amino}-5,6,7,8-tetrahydronaphthalen-2-yl]-1λ^6,2,5-thiadiazolidine-1,1,3-trione] | 1 to 10 nM |
| 10 to 100 nM | Cn1ccc(CN[C@@H]2CCc3cc(O)c(N4CC(=O)NS4(=O)=O)c(F)c3C2)c1 [Compound 346, 5-[(7R)-1-fluoro-3-hydroxy-7-{[(1-methyl-1H-pyrrol-3-yl)methyl]amino}-5,6,7,8-tetrahydronaphthalen-2-yl]-1λ^6,2,5-thiadiazolidine-1,1,3-trione] | 1 to 10 nM |

More lines, now with the values behind:

| SMILES | IC50 [2] | IC50 [1] |
| --- | --- | --- |
| O=C1CN(c2c(O)cc3c(c2F)CN(CCCc2ccc(F)cc2)CC3)S(=O)(=O)N1 [Compound 299] | 10 to 100 nM | 1 to 10 nM |
| CC(C)(C)c1ccc(CCCN2CCc3cc(O)c(N4CC(=O)NS4(=O)=O)c(F)c3C2)cc1 [Compound 301] | > 100 nM | 10 to 100 nM |
| Cc1n[nH]c(C)c1CCN1Cc2c(cc(O)c(N3CC(=O)NS3(=O)=O)c2F)C(F)(F)C1 [Compound 320] | > 100 nM | > 100 nM |
| O=C1CN(c2c(O)cc3c(c2F)CN(C(=O)NCC2CCCCC2)CC3)S(=O)(=O)N1 [Compound 321] | 1 to 10 nM | 1 to 10 nM |
| O=C1CC[C@@H](CN2CCc3cc(O)c(N4CC(=O)NS4(=O)=O)c(F)c3C2)N1 [Compound 324] | 10 to 100 nM | 1 to 10 nM |
| CC(C)CCC[C@H]1Cc2c(cc(O)c(N3CC(=O)NS3(=O)=O)c2F)CN1 [Compound 325] | 1 to 10 nM | 1 to 10 nM |
| N[C@@H]1COc2cc(O)c(N3CC(=O)NS3(=O)=O)c(F)c2C1 [Compound 326, 5-[(3S)-3-amino-5-fluoro-7-hydroxy-3,4-dihydro-2H-1-benzopyran-6-yl]-1λ^6,2,5-thiadiazolidine-1,1,3-trione] | 10 to 100 nM | 10 to 100 nM |
| [2H]C1([2H])C(=O)NS(=O)(=O)N1c1c(O)cc2c(c1F)C[C@H](NCCC(C)C)CC2 [Compound 327, 5-{(7R)-1-fluoro-3-hydroxy-7-[(3-methylbutyl)amino]-5,6,7,8-tetrahydronaphthalen-2-yl}(4,4-^2H2)-1λ^6,2,5-thiadiazolidine-1,1,3-trione] | 1 to 10 nM | < 1 nM |
| CC(C)CNS(=O)(=O)N1CCc2cc(O)c(N3CC(=O)NS3(=O)=O)c(F)c2C1 [Compound 328, 8-fluoro-6-hydroxy-N-(2-methylpropyl)-7-(1,1,4-trioxo-1λ^6,2,5-thiadiazolidin-2-yl)-3,4-dihydroisoquinoline-2(1H)-sulfonamide] | 10 to 100 nM | 10 to 100 nM |
| CC(C)CNCC1CCc2cc(O)c(N3CC(=O)NS3(=O)=O)c(F)c2C1 (centres unmarked) [Compound 333, 5-(1-fluoro-3-hydroxy-7-{[(2-methylpropyl)amino]methyl}-5,6,7,8-tetrahydronaphthalen-2-yl)-1λ^6,2,5-thiadiazolidine-1,1,3-trione] | 10 to 100 nM | 10 to 100 nM |
| CC(C)C(F)CNC1CCc2cc(O)c(N3CC(=O)NS3(=O)=O)c(F)c2C1 (centres unmarked) [Compound 334, 5-{1-fluoro-7-[(2-fluoro-3-methylbutyl)amino]-3-hydroxy-5,6,7,8-tetrahydronaphthalen-2-yl}-1λ^6,2,5-thiadiazolidine-1,1,3-trione] | 1 to 10 nM | 1 to 10 nM |
| CC(C)CNCC1(O)CCc2cc(O)c(N3CC(=O)NS3(=O)=O)c(F)c2C1 (centres unmarked) [Compound 339, 5-(1-fluoro-3,7-dihydroxy-7-{[(2-methylpropyl)amino]methyl}-5,6,7,8-tetrahydronaphthalen-2-yl)-1λ^6,2,5-thiadiazolidine-1,1,3-trione] | 10 to 100 nM | 10 to 100 nM |
| [2H]C1([2H])Cc2cc(O)c(N3CC(=O)NS3(=O)=O)c(F)c2C([2H])([2H])C1([2H])NCCC(C)C (centres unmarked) [Compound 340, 5-{1-fluoro-3-hydroxy-7-[(3-methylbutyl)amino](6,6,7,8,8-^2H5)-5,6,7,8-tetrahydronaphthalen-2-yl}-1λ^6,2,5-thiadiazolidine-1,1,3-trione] | 1 to 10 nM | < 1 nM |
| Cn1cccc1CN[C@@H]1CCc2cc(O)c(N3CC(=O)NS3(=O)=O)c(F)c2C1 [Compound 345, 5-[(7R)-1-fluoro-3-hydroxy-7-{[(1-methyl-1H-pyrrol-2-yl)methyl]amino}-5,6,7,8-tetrahydronaphthalen-2-yl]-1λ^6,2,5-thiadiazolidine-1,1,3-trione] | 10 to 100 nM | 10 to 100 nM |

Source: patent US20250122160A1, “PROTEIN TYROSINE PHOSPHATASE INHIBITORS AND METHODS OF USE THEREOF” (Calico Life Sciences LLC, priority 0001, published 2025)
